How the values were obtained:
Experiment in all cases: relative viability (nuclei count vs DMSO), 5 days (fraction); higher = more cells survive
[1] = compound: CC1CC(=O)N(C2=CN=C(N=C2N1C3CCCC3)NC4=C(C=C(C=C4)C(=O)NC5CCN(CC5)C)OC)C [NPK76-II-72-1] + Cc1cc(Nc2cc(N3CCN(C)CC3)nc(Sc3ccc(NC(=O)C4CC4)cc3)n2)n[nH]1 [Tozasertib] (partner 0.1 µM)
How it was run: (§1)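 The day after seeding in 1536-well plates, lung cancer cell lines were treated by pin tool with a single drug, or with a fixed anchor-drug dose together with five library-drug doses (not always all listed) in √10 steps. After 5 days, a combined fix-and-stain solution (final 0.05% Triton X-100, 1% formaldehyde, 1 ug/ml Hoechst) was added. Nuclei counted on 4× images gave relative viability as treated counts over vehicle counts, reported as the median of duplicate plates.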

BI-2536 + Pemetrexed = compound: CC[C@@H]1C(=O)N(C)c2cnc(Nc3ccc(C(=O)NC4CCN(C)CC4)cc3OC)nc2N1C1CCCC1 [BI-2536] + Nc1nc2[nH]cc(CCc3ccc(C(=O)N[C@@H](CCC(=O)O)C(=O)O)cc3)c2c(=O)[nH]1 [Pemetrexed] (partner 0.2 µM)
How it was run: as §1

BI-2536 + Navitoclax = compound: CC[C@@H]1C(=O)N(C)c2cnc(Nc3ccc(C(=O)NC4CCN(C)CC4)cc3OC)nc2N1C1CCCC1 [BI-2536] + CC1(C)CCC(c2ccc(Cl)cc2)=C(CN2CCN(c3ccc(C(=O)NS(=O)(=O)c4ccc(N[C@H](CCN5CCOCC5)CSc5ccccc5)c(S(=O)(=O)C(F)(F)F)c4)cc3)CC2)C1 [Navitoclax] (partner 0.5 µM)
How it was run: as §1

BI-2536 + Crizotinib = compound: CC[C@@H]1C(=O)N(C)c2cnc(Nc3ccc(C(=O)NC4CCN(C)CC4)cc3OC)nc2N1C1CCCC1 [BI-2536] + C[C@@H](Oc1cc(-c2cnn(C3CCNCC3)c2)cnc1N)c1c(Cl)ccc(F)c1Cl [Crizotinib] (partner 1 µM)
How it was run: as §1

| Cell Line | relative viability ([1]; first compound 0.01 µM) | relative viability ([1]; first compound 0.03162 µM) | relative viability ([1]; first compound 0.1 µM) | relative viability ([1]; first compound 0.3162 µM) | relative viability ([1]; first compound 1 µM) | relative viability (BI-2536 + Pemetrexed; first compound 0.01 µM) | relative viability (BI-2536 + Pemetrexed; first compound 0.03162 µM) | relative viability (BI-2536 + Pemetrexed; first compound 0.1 µM) | relative viability (BI-2536 + Pemetrexed; first compound 0.3162 µM) | relative viability (BI-2536 + Pemetrexed; first compound 1 µM) | relative viability (BI-2536 + Navitoclax; first compound 0.01 µM) | relative viability (BI-2536 + Navitoclax; first compound 0.03162 µM) | relative viability (BI-2536 + Navitoclax; first compound 0.1 µM) | relative viability (BI-2536 + Navitoclax; first compound 0.3162 µM) | relative viability (BI-2536 + Navitoclax; first compound 1 µM) | relative viability (BI-2536 + Crizotinib; first compound 0.01 µM) | relative viability (BI-2536 + Crizotinib; first compound 0.03162 µM) | relative viability (BI-2536 + Crizotinib; first compound 0.1 µM) | relative viability (BI-2536 + Crizotinib; first compound 0.3162 µM) | relative viability (BI-2536 + Crizotinib; first compound 1 µM) |
| --- | --- | --- | --- | --- | --- | --- | --- | --- | --- | --- | --- | --- | --- | --- | --- | --- | --- | --- | --- | --- |
| HCC-44 | 0.875 | 1.16 | 0.962 | 0.795 | 1.04 | 0.738 | 0.612 | 0.651 | 0.38 | 0.246 | 0.956 | 1.02 | 0.849 | 0.0892 | 0.095 | 0.786 | 0.703 | 0.444 | 0.139 | 0.0857 |
| HCC-827 | 0.399 | 0.416 | 0.417 | 0.409 | 0.476 | 0.232 | 0.253 | 0.224 | 0.227 | 0.187 | 1.06 | 1 | 0.99 | 0.23 | 0.186 | 0.926 | 0.968 | 0.714 | 0.328 | 0.305 |
| NCI-H1623 | 0.467 | 0.434 | 0.353 | 0.341 | 0.467 | – | – | – | – | – | – | – | – | – | – | – | – | – | – | – |
| NCI-H2347 | 0.405 | 0.542 | 0.507 | 0.589 | 0.638 | 0.437 | 0.437 | 0.38 | 0.365 | 0.344 | 0.759 | 0.742 | 0.744 | 0.358 | 0.326 | 0.675 | 0.692 | 0.675 | 0.345 | 0.445 |
| PC-14 | 0.577 | 0.609 | 0.594 | 0.564 | 0.699 | 0.15 | 0.14 | 0.132 | 0.0335 | 0.0205 | 1.05 | 1.06 | 0.902 | 0.0528 | 0.0559 | 0.852 | 0.793 | 0.792 | 0.116 | 0.0584 |
| NCI-H1651 | 0.632 | 0.919 | 0.661 | 0.388 | 0.759 | 0.613 | 0.583 | 0.511 | 0.139 | 0.0892 | 1.14 | 1.13 | 0.683 | 0.0829 | 0.055 | 0.85 | 0.889 | 0.81 | 0.358 | 0.101 |
| HARA | 0.124 | 0.0912 | 0.116 | 0.106 | 0.108 | 0.258 | 0.313 | 0.222 | 0.146 | 0.126 | 1.15 | 1.17 | 0.98 | 0.103 | 0.0669 | 1.03 | 1.07 | 0.636 | 0.139 | 0.196 |
| NCI-H1650 | 0.397 | 0.444 | 0.429 | 0.501 | 0.386 | 0.383 | 0.297 | 0.288 | 0.166 | 0.136 | 1.12 | 1.1 | 0.62 | 0.145 | 0.149 | 0.948 | 0.742 | 0.208 | 0.143 | 0.11 |
| NCI-H1395 | 0.726 | 0.822 | 0.72 | 0.767 | 0.759 | 0.73 | 0.643 | 0.34 | 0.323 | 0.402 | 1.01 | 0.635 | 0.732 | 0.42 | 0.467 | – | – | – | – | – |
| LU99A | 0.318 | 0.309 | 0.309 | 0.271 | 0.283 | 0.225 | 0.193 | 0.165 | 0.152 | 0.143 | 0.811 | 0.86 | 0.323 | 0.108 | 0.132 | 0.527 | 0.526 | 0.218 | 0.212 | 0.184 |
| NCI-H1355 | 0.534 | 0.582 | 0.605 | 0.543 | 0.609 | 1.04 | 1 | 0.899 | 0.211 | 0.174 | 0.885 | 1.08 | 0.91 | 0.159 | 0.186 | 1.06 | 1.1 | 0.796 | 0.198 | 0.184 |
| HCC-78 | 0.446 | 0.407 | 0.408 | 0.368 | 0.429 | 0.981 | 0.874 | 0.932 | 0.895 | 0.847 | 0.772 | 0.708 | 0.635 | 0.344 | 0.144 | 0.368 | 0.288 | 0.347 | 0.18 | 0.159 |
| NCI-H1563 | – | – | – | – | – | 0.736 | 0.789 | 0.744 | 0.413 | 0.473 | – | – | – | – | – | 0.902 | 0.817 | 0.822 | 0.621 | 0.561 |
| HCC-15 | 0.394 | 0.384 | 0.342 | 0.41 | 0.462 | 0.228 | 0.211 | 0.197 | 0.179 | 0.179 | 0.709 | 0.693 | 0.497 | 0.202 | 0.101 | 0.82 | 0.64 | 0.426 | 0.134 | 0.118 |
| EKVX | 0.335 | 0.339 | 0.416 | 0.379 | 0.474 | 0.389 | 0.403 | 0.326 | 0.194 | 0.28 | 0.786 | 0.874 | 1.02 | 0.15 | 0.114 | 1.01 | 0.745 | 1.07 | 0.217 | 0.147 |
| NCI-H2087 | 0.284 | 0.203 | 0.272 | 0.254 | 0.249 | 0.7 | 0.697 | 0.713 | 0.104 | 0.0907 | 0.868 | 0.974 | 0.8 | 0.112 | 0.138 | 0.892 | 0.771 | 0.518 | 0.169 | 0.139 |
| LK-2 | 0.159 | 0.195 | 0.183 | 0.187 | 0.213 | 0.249 | 0.249 | 0.0925 | 0.0896 | 0.1 | 0.798 | 0.553 | 0.387 | 0.118 | 0.172 | 0.245 | 0.237 | 0.202 | 0.177 | 0.245 |

From the supplement of paper PMC10307832
